Experiments:
UGT1A4 = target: T1, UGT1A4 (Homo sapiens, UniProt P22310); assay: UGT reaction phenotyping, recombinant Supersomes; assay type: in vitro ADME; details: human, recombinant UGT1A4 Supersomes, pH 7.4, Test Conc. 1 μM; for microsomal CLint at 1 µM: read-out: Recombinant UGT CLINT Clearance; for half-life at 1 µM: read-out: Recombinant UGT Half Life T1/2
T1 construct: purchased BD Biosciences
T1 sequence (P22310 29-534): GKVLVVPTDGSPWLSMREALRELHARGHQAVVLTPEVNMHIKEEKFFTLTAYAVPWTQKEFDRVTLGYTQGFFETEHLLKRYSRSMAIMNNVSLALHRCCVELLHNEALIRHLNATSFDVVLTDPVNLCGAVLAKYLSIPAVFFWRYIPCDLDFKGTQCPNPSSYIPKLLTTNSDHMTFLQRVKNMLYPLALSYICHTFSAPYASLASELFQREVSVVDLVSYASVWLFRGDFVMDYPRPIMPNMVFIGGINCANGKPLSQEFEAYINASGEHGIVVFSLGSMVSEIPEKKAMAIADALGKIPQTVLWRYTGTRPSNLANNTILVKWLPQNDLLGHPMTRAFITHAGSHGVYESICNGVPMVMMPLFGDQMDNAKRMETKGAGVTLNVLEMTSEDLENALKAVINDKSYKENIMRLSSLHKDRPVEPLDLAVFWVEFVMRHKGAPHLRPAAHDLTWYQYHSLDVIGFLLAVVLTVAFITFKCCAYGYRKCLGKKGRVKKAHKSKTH
Description: Experimental Summary: UGT Reaction Phenotyping (7 Isoforms).

[1] = system: indomethacin induced intestinal injury; assay: Indomethacin-induced Crohn's disease in rats; assay type: in vivo; details: for small intestine weight compared to vehicle: all three treatment groups (50, 200, 800 mg/kg PO, days 0-3); for body weight change (prevention of weight loss): all treatment groups (50, 200, 800 mg/kg PO, days 0-3), vs dexamethasone (Compound 2: also vehicle)
Experimental: The objective of this study was to determine the efficacy of Compound 1 and Compound 2 in a model of Crohn's disease (indomethacin induced intestinal injury) in rats.
The study design was identical for Compound 1 and Compound 2. On study day −3, rats were weighed and distributed into treatment groups based on body weight.
On study day 0, treatment was initiated and continue as indicated in the Study Design Tables below. Groups 2-6 received a subcutaneous injection of indomethacin (9 mg/kg, 1 ml/kg) in 5% sodium bicarbonate (Sterile Water). On study day 1, Groups 2-6 received a second subcutaneous injection of indomethacin (8 mg/kg, 1 ml/kg) in 5% sodium bicarbonate (Sterile Water). Live phase sample & data collection specifics are outlined below. On study day 4, animals will be euthanized, a section of the small intestine will be removed and weighed. Further necropsy sample and data collection is specified below. Overall efficacy of test articles will be based on body weight, small intestine weight (10 cm), small intestine gross score, and histopathology
At necropsy, the small intestines were evaluated visually and given a gross score according to the following criteria: ⋅0=Normal. 0.5=Very Minimal thickening, multifocal in area at risk. 1=Minimal thickening, fairly diffuse in area at risk. 2=Mild to moderate small intestinal/mesenteric thickening throughout area at risk. 3=Moderate thickening with 1 or more definite adhesions that would be easy to separate. 4=Marked thickening with numerous hard to separate adhesions. 5=Severe intestinal lesion resulting in death.
Preserved 9-cm sections of small intestine were trimmed into 6 transverse sections collected at approximately equal intervals along the […] of the intestine, without bias toward lesion presence or absence. These trimmed sections were processed through graded alcohols and a clearing agent, infiltrated and embedded in paraffin, sectioned, and stained with hematoxylin and eosin (H&E).
Small intestine sections from all animals were examined microscopically by a board-certified veterinary pathologist, and observations were entered into a computer-assisted data retrieval system. Cross sections of small intestine were scored for inflammation and necrosis using the following criteria:
The area at risk for development of this lesion is generally approximately 30% of the total area of a cross section of small intestine where the mesentery attaches.
Inflammation is localized to the mesentery and intestinal area at risk for necrosis with slight extension on either side of it. […] In this case, inflammation is scored based on overall severity ranging from 0.5 (very minimal) to 5 (severe) without regard for the extent of necrosis. The mean score for necrosis and inflammation was calculated for each animal and these mean scores were then summed to arrive at a total score. Each section also has a measurement of total width of mucosal necrosis.

[2] = system: cryopreserved hepatocytes; assay: Hepatocyte stability and metabolite profiling; assay type: in vitro ADME, rat; details: rat hepatocyte samples
Experimental: (§1) The objective of this study was to investigate the stability of the test compound, CBG, in human, rat, dog, mouse, monkey and minipig cryopreserved hepatocytes. Follow-on metabolite profiling was performed.
(§2) CBG was incubated up to 2 hr with cryopreserved hepatocytes. Cryopreserved hepatocytes in suspension were added to test compound in supplemented media following pre-incubation to initiate the reaction and the reactions were stopped by organic solvent at the appropriate time points. The termination plates were centrifuged and sample supernatants were analysed using Cyprotex generic LC MS/MS conditions to generate intrinsic clearance values for CBG. Two control compounds for each species were included in the assay and if the values for these compounds were not within the specified limits the results were rejected and the experiment repeated.
(§3) Following the hepatocyte stability assay the samples were 59tilized for metabolite profiling using suitable high-resolution LC-MS/MS conditions. The 40 and 60 minute human samples, 20 and 120 minute rat samples, 10 and 20 minute dog and monkey samples, 20 and 60 minute mouse samples, and 40 and 120 minute minipig samples were compared against the 0 minute control sample to establish which and how many metabolites were formed. […] No further analysis was carried out with the mouse species.
(§4) The areas and percentages reported for the parent and metabolites were calculated using the XIC data. Metabolite observed at greater than 1% of the total of drug related material are reported. […] For accuracy, a ppm error of less than 5 is desirable; when the response for a metabolite observed is low the ppm error maybe greater than 5. Where a metabolite has been referred to as a potential oxidation it can refer to a potential hydroxylation, epoxidation or oxide formation. Representative collision induced dissociation (CID) mass spectra were obtained for the metabolites found.

[3] = Hepatocyte stability and metabolite profiling; assay type: in vitro ADME, rat; details: cryopreserved hepatocytes in suspension; Rat cryopreserved hepatocytes
Experimental: as §1, §2, §3, §4

[4] = Compound 1 Group 5 (200 mg/kg PO)
[5] = Compound 1 Groups 4 and 5 (50, 200 mg/kg PO)

With `CCCCCc1cc(O)c(C/C=C(\C)CCC=C(C)C)c(OC)c1` [Compound 1, (E)-2-(3,7-dimethylocta-2,6-dien-1-yl)-3-methoxy-5-pentylphenol] the microsomal CLint at 1 µM (UGT1A4) was less than 2.89 µL/min/mg, the half-life at 1 µM (UGT1A4) was greater than 4 h and the “histopathology scores vs vehicle and dexamethasone” value [1, 4] was “significantly lower”. The “necrosis width vs vehicle and dexamethasone” value [1, 4] was “significantly lower”, the “Histopathology scores vs vehicle and positive control” value [1, 5] was “trended lower” and the “necrosis width vs vehicle and positive control” value [1, 5] was “trended lower”. For the same compound, the “small intestine gross score compared to vehicle” value ([1]; Group 4 (50 mg/kg PO)) was “trend in lower small intestine gross score”, the “small intestine gross score compared to vehicle” value ([1]; Groups 5-6 (200, 800 mg/kg PO)) was “significant reductions” and the “small intestine weight compared to vehicle” value [1] was “significantly lower”. The “body weight change (prevention of weight loss)” value [1] was “trended towards or had significant differences in preventing weight loss”.
For `CCCCCc1cc(OC)c(C/C=C(\C)CCC=C(C)C)c(OC)c1` [Compound 2, (E)-2-(3,7-dimethylocta-2,6-dien-1-yl)-1,3-dimethoxy-5-pentylbenzene], the “reduction of necrosis width, of vehicle” value ([1]; Compound 2 Group 5) was 99%, the “histopathology scores vs vehicle and dexamethasone” value ([1]; Compound 2 Group 5 & 6) was “significantly lower” and the “necrosis width vs vehicle and dexamethasone” value ([1]; Compound 2 Group 5 & 6) was “significantly lower”. The “reduction of necrosis width, of vehicle” value ([1]; Compound 2 Group 6) was 96%, the “Histopathology scores vs vehicle” value ([1]; Compound 2 Groups 4-6) was “lower than the vehicle” and the “necrosis width vs vehicle” value ([1]; Compound 2 Groups 4-6) was “lower than the vehicle”. For the same compound, the “small intestine gross score compared to vehicle” value ([1]; Group 4 (50 mg/kg PO)) was “trend in lower small intestine gross score”, the “small intestine gross score compared to vehicle” value ([1]; Groups 5-6 (200, 800 mg/kg PO)) was “significant reductions” and the “small intestine weight compared to vehicle” value [1] was “significantly lower”. For the same compound, the “body weight change (prevention of weight loss)” value [1] was “trended towards or had significant differences in preventing weight loss”.
For `CCCCCc1cc(O)c(C/C=C(\C)CCC=C(C)C)c(O)c1` [CBG, cannabigerol], the “number of metabolites observed” value [2] was “eight”, the half-life [3] was 0.817 h and the hepatocyte CLint [3] was 28.3 µL/min/1e6 cells. For the same compound, the microsomal CLint at 1 µM (UGT1A4) was less than 2.89 µL/min/mg and the half-life at 1 µM (UGT1A4) was greater than 4 h.

From patent publication US11992497B2 (priority 2021, dated 2024)
